Experiments:
Format in all cases: in vivo
sorghum [1] = assay: Herbicidal activity test against upland field weeds (foliar treatment test); conditions: 50 g ai/ha, scale 0-100; for plant injury at 50 g/ha: Sorghum
Summary of the method: (§1)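 Weeds were raised from seed or rootstocks in horticultural soil in a greenhouse (30±5° C., 14/10 h light/dark), then foliage was hand-sprayed with compound at 50 or 75 g a.i./ha in 50% acetone with 0.1% Tween-20. Control was scored visually 0–100 against untreated plants after 14 days, or 21 if needed.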

barnyard grass [2] = assay: as above; parameters: key to Foliar treatment herbicidal activity, barnyard grass: 0 (no control); 100 (complete control); conditions: 50 g ai/ha, scale 0-100
Summary of the method: as §1

quack grass [3] = assay: as above; parameters: key to Foliar treatment herbicidal activity, quack grass: 0 (no control); 100 (complete control); conditions: 50 g ai/ha, scale 0-100
Summary of the method: as §1

crabgrass [4] = assay: as above; parameters: key to Foliar treatment herbicidal activity, Crabgrass: 0 (no control); 100 (complete control); conditions: 50 g ai/ha, scale 0-100
Summary of the method: as §1

fall panicum [5] = assay: as above; conditions: 50 g ai/ha, scale 0-100; for pest or weed control at 50 g/ha: Panicum dichotomiflorum
Summary of the method: as §1

black nightshade [6] = assay: as above; parameters: key to Foliar treatment herbicidal activity, black nightshade: 0 (no control); 100 (complete control); conditions: 50 g ai/ha, scale 0-100
Summary of the method: as §1

indian jointvetch [7] = assay: as above; parameters: key to Foliar treatment herbicidal activity, Indian jointvetch: 0 (no control); 100 (complete control); conditions: 50 g ai/ha, scale 0-100
Summary of the method: as §1

velvetleaf [8] = assay: as above; parameters: key to Foliar treatment herbicidal activity, velvet leaf: 0 (no control); 100 (complete control); conditions: 50 g ai/ha; for Foliar treatment herbicidal activity, velvet leaf: scale 0-100
Summary of the method: as §1

cocklebur [9] = assay: as above; parameters: key to Foliar treatment herbicidal activity, Cocklebur: 0 (no control); 100 (complete control); conditions: 50 g ai/ha, scale 0-100
Summary of the method: as §1

bindweed [10] = assay: as above; parameters: key to Foliar treatment herbicidal activity, Bindweed: 0 (no control); 100 (complete control); conditions: 50 g ai/ha, scale 0-100
Summary of the method: as §1

sorghum [11] = assay: Herbicidal activity test against upland field weeds (soil treatment test); parameters: key to Soil treatment herbicidal activity, Sorghum: 0 (no control); 100 (complete control); conditions: 50 g ai/ha, scale 0 (no control) to 100 (complete control)
Summary of the method: (§2)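 Pre-emergence test: seeds or rootstocks were sown in fertilized sandy loam, and the next day the soil surface was sprayed with compound at 50 or 75 g a.i./ha in 50% acetone/0.1% Tween-20. Plants were grown in a greenhouse (30±5 °C, 14/10 h light/dark), then visually scored 0–100 against untreated at 14 d (21 d if needed).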

barnyard grass [12] = assay: as above; parameters: key to Soil treatment herbicidal activity, barnyard grass: 0 (no control); 100 (complete control); conditions: 50 g ai/ha, scale 0 (no control) to 100 (complete control)
Summary of the method: as §2

quack grass [13] = assay: as above; parameters: key to Soil treatment herbicidal activity, quack grass: 0 (no control); 100 (complete control); conditions: 50 g ai/ha, scale 0 (no control) to 100 (complete control)
Summary of the method: as §2

crabgrass [14] = assay: as above; parameters: key to Soil treatment herbicidal activity, Crabgrass: 0 (no control); 100 (complete control); conditions: 50 g ai/ha, scale 0 (no control) to 100 (complete control)
Summary of the method: as §2

fall panicum [15] = assay: as above; parameters: key to Soil treatment herbicidal activity, Fall panicum: 0 (no control); 100 (complete control); conditions: 50 g ai/ha, scale 0 (no control) to 100 (complete control)
Summary of the method: as §2

black nightshade [16] = assay: as above; conditions: 50 g ai/ha, scale 0 (no control) to 100 (complete control); for pest or weed control at 50 g/ha: Solanum nigrum
Summary of the method: as §2

indian jointvetch [17] = assay: as above; parameters: key to Soil treatment herbicidal activity, Indian jointvetch: 0 (no control); 100 (complete control); conditions: 50 g ai/ha, scale 0 (no control) to 100 (complete control)
Summary of the method: as §2

velvetleaf [18] = assay: as above; parameters: key to Soil treatment herbicidal activity, velvet leaf: 0 (no control); 100 (complete control); conditions: 50 g ai/ha, scale 0 (no control) to 100 (complete control)
Summary of the method: as §2

cocklebur [19] = assay: as above; parameters: key to Soil treatment herbicidal activity, Cocklebur: 0 (no control); 100 (complete control); conditions: 50 g ai/ha, scale 0 (no control) to 100 (complete control)
Summary of the method: as §2

bindweed [20] = assay: as above; parameters: key to Soil treatment herbicidal activity, Bindweed: 0 (no control); 100 (complete control); conditions: 50 g ai/ha, scale 0 (no control) to 100 (complete control)
Summary of the method: as §2

Compound | plant injury at 50 g/ha (sorghum [1]) [%] | Foliar treatment herbicidal activity, Crabgrass (crabgrass [4]) | pest or weed control at 50 g/ha (fall panicum [5]) [%] | Foliar treatment herbicidal activity, black nightshade (black nightshade [6]) | Foliar treatment herbicidal activity, Indian jointvetch (indian jointvetch [7]) | Foliar treatment herbicidal activity, velvet leaf (velvetleaf [8]) | Foliar treatment herbicidal activity, Cocklebur (cocklebur [9]) | Foliar treatment herbicidal activity, Bindweed (bindweed [10]) | Soil treatment herbicidal activity, Sorghum (sorghum [11]) | Soil treatment herbicidal activity, barnyard grass (barnyard grass [12]) | Soil treatment herbicidal activity, quack grass (quack grass [13]) | Soil treatment herbicidal activity, Crabgrass (crabgrass [14]) | Soil treatment herbicidal activity, Fall panicum (fall panicum [15]) | pest or weed control at 50 g/ha (black nightshade [16]) [%] | Soil treatment herbicidal activity, Indian jointvetch (indian jointvetch [17]) | Soil treatment herbicidal activity, velvet leaf (velvetleaf [18]) | Soil treatment herbicidal activity, Cocklebur (cocklebur [19]) | Soil treatment herbicidal activity, Bindweed (bindweed [20]) | Foliar treatment herbicidal activity, barnyard grass (barnyard grass [2]) | Foliar treatment herbicidal activity, quack grass (quack grass [3]) | further results
Cn1nnc(C[S+]([O-])Cc2nc(C(F)(F)F)ccc2C(=O)Nc2nnnn2C)n1 (stereo not drawn) [Compound No. 2-104, N-(1-methyl-1H-tetrazol-5-yl)-2-((((2-methyl-2H-tetrazol-5-yl)methyl)sulfinyl)methyl)-6-(trifluoromethyl)nicotinamide] | 80 | 100 | 98 | 100 | 100 | 100 | 100 | 100 | 0 | 0 | 0 | 0 | 0 | 98 | 0 | 100 | 0 | 0 |  |  | pest or weed control at 50 g/ha (barnyard grass [2]; Echinochloa crus-galli): 98%; pest or weed control at 50 g/ha (quack grass [3]): 30%
Cn1nnc(C[S+]([O-])Cc2nc(C(F)F)ccc2C(=O)Nc2nnnn2C)n1 (stereo not drawn) [Compound No. 2-111, 6-(difluoromethyl)-N-(1-methyl-1H-tetrazol-1-yl)-2-((((2-methyl-2H-tetrazol-5-yl)methyl)sulfinyl)methyl)nicotinamide] |  | 98 |  | 100 | 95 | 80 | 100 | 98 | 0 | 0 | 0 | 0 | 0 |  | 0 | 0 | 0 | 0 | 100 | 0 | Foliar treatment herbicidal activity, Sorghum (sorghum [1]): 70; Foliar treatment herbicidal activity, Fall panicum (fall panicum [5]): 95; Soil treatment herbicidal activity, black nightshade (black nightshade [16]): 90
Cn1nnc(CSCc2nc(C(F)F)ccc2C(=O)N(C(=O)c2ccccc2)c2nnnn2C)n1 [Compound No. 2-112, N-benzoyl-6-(difluoromethyl)-N-(1-methyl-1H-tetrazol-5-yl)-2-((((2-methyl-2H-tetrazol-5-yl)methyl)thio)methyl)nicotinamide] | 50 |  | 70 | 100 |  |  |  |  | 0 | 0 | 0 | 0 | 0 | 90 | 100 | 100 | 0 | 0 | 100 | 0 | pest or weed control at 50 g/ha (crabgrass [4]; Digitaria sanguinalis): 90%; pest or weed control at 50 g/ha (indian jointvetch [7]): 95%; pest or weed control at 50 g/ha (velvetleaf [8]; Abutilon theophrasti, scale 0-100, read-out: Foliar treatment herbicidal activity, velvet leaf): 90%; pest or weed control at 50 g/ha (cocklebur [9]; Xanthium strumarium): 98%; pest or weed control at 50 g/ha (bindweed [10]): 98%
